Data: the NIST ThermoML archive (doi:10.1016/j.jct.2019.02.003)

Conditions: 84 kPa, Liquid, Pycnometric method

CN(CCO)CCO [N-methyldiethanolamine]
Conditions | mass density [kg/m3]
293.15 K | 1041.12
303.15 K | 1033.6
313.15 K | 1025.83
323.15 K | 1017.8
333.15 K | 1010.8
343.15 K | 1002.76
